According to patent US20250304620A1, “ANTIMICROBIAL PEPTIDE AND APPLICATION THEREOF” (priority 2023, published 2025):
Converted amounts (≈) assume the structure as drawn. Marks after values point to notes of the source that are not given here. Non-standard residues stand in square brackets, D forms with d. Residues, ends and D or L forms follow the SMILES beside them. dPhe(3,4-Cl2) = N[C@H](Cc1ccc(Cl)c(Cl)c1)C(=O)O; dPhe(4-CF3) = N[C@H](Cc1ccc(C(F)(F)F)cc1)C(=O)O

Assays:
[1] = test system: Bacillus subtilis ATCC 6633; format: cell-based
In short: (§1)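 MICs were determined by serial twofold dilution in microdilution format, following CLSI antimicrobial susceptibility testing standards. Each determination was repeated 5 times in parallel.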

[2] = test system: Candida albicans ATCC MYA-2876; format: cell-based
In short: as §1

[3] = test system: Candida glabrata ATCC 15126; format: cell-based
In short: as §1

Candida krusei ATCC 6258 = format: cell-based
In short: as §1

[4] = test system: Candida tropicalis ATCC 750; format: cell-based
In short: as §1

Candida utilis ATCC 9950 = format: cell-based
In short: as §1

[5] = test system: Corynebacterium ATCC 7715; format: cell-based
In short: as §1

Enterococcus ATCC 29212 = format: cell-based
In short: as §1

[6] = test system: Escherichia coli ATCC 25922; format: cell-based
In short: as §1

[7] = test system: Klebsiella pneumoniae ATCC 700603; format: cell-based
In short: as §1

[8] = test system: Pseudomonas aeruginosa ATCC 27853; format: cell-based
In short: as §1

[9] = test system: Salmonella typhimurium ATCC 14028; format: cell-based
In short: as §1

[10] = test system: Serratia marcescens ATCC 29021; format: cell-based
In short: as §1

[11] = test system: Staphylococcus aureus ATCC 25923; format: cell-based
In short: as §1

[12] = test system: Trichophyton ATCC MYA-4438; format: cell-based
In short: as §1

[13] = test system: Shigella flexneri ATCC 12022; assay: MIC against clinically common bacterial strain; format: cell-based
In short: as §1

rabbit red blood cells = format: cell-based; conditions: red cells of rabbit, 1 h
[14] = test system: Staphylococcus aureus (NRS 384); conditions: NRS 384, 3 h
Protocol: Trypsin (250 U/mg, pH=8.0) and AMPs (LV-1 to LV-30) were mixed in a ratio of 1:10 (w/w) and added to a reaction buffer (0.2 M sodium phosphate, 1 mM CaCl2), pH 7.5), and then incubated at 37° C. for 3 h.

[15] = test system: Escherichia coli ATCC 25922; assay: Oral formulations on mice with systemic bacterial infection; format: in vivo, ICR mice; conditions: 1 mg/kg gavage, three times a day for 7 days, n = 10; for Average survival times (Days): observed for 14 d
In short: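 Survival time and deaths were logged over a 14 d observation after oral gavage dosing (by body weight, thrice daily, 7 days, starting right after infection). Model: mixed-sex ICR mice, n=10 per group, intraperitoneal injection of E. coli ATCC 25922 suspension (0.2 mL, 1×10^7 CFU/mL).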

[16] = Serum stability assay (residual level by RP-HPLC); conditions: human

Row | SMILES | MIC Bacillus subtilis ATCC 6633 [1] | MIC Candida albicans ATCC MYA-2876 [2] | MIC Candida glabrata ATCC 15126 [3] | MIC Candida krusei ATCC 6258 (Candida krusei ATCC 6258) | MIC Candida tropicalis ATCC 750 [4] | MIC Candida utilis ATCC 9950 (Candida utilis ATCC 9950) | MIC Corynebacterium ATCC 7715 [5] | MIC Enterococcus ATCC 29212 (Enterococcus ATCC 29212) | MIC Escherichia coli ATCC 25922 [6] | MIC Klebsiella pneumoniae ATCC 700603 [7] | MIC Pseudomonas aeruginosa ATCC 27853 [8] | MIC Salmonella typhimurium ATCC 14028 [9] | MIC Serratia marcescens ATCC 29021 [10] | MIC Staphylococcus aureus ATCC 25923 [11] | MIC Trichophyton ATCC MYA-4438 [12] | MIC Shigella flexneri ATCC 12022 [13] | MHC (minimum hemolytic concentration, lowest concentration causing 10% hemolysis) (rabbit red blood cells) | Trypsin MIC [14] | Number of mice that died on each day after infection: day 4 [15] | Number of mice that died on each day after infection: day 5 [15] | other results
1 | CC(=O)N[C@H](CCCNC(=N)N)C(=O)N[C@H](CCCCN)C(=O)N[C@H](CC(C)C)C(=O)N[C@H](CC(C)C)C(=O)N[C@H](Cc1ccc(Cl)c(Cl)c1)C(=O)N[C@H](CCCCN)C(=O)N[C@H](CC(C)C)C(=O)N[C@H](CCCCN)C(=O)N[C@H](Cc1ccc(Cl)c(Cl)c1)C(=O)N[C@H](CCCCN)C(=O)N[C@H](CCCNC(=N)N)C(N)=O [LV-8] (Ac-[dR][dK][dL][dL][dPhe(3,4-Cl2)][dK][dL][dK][dPhe(3,4-Cl2)][dK][dR]-NH2) | 2 µg/mL (≈ 1.21 µM) | 16 µg/mL (≈ 9.66 µM) | 16 µg/mL (≈ 9.66 µM) | 16 µg/mL (≈ 9.66 µM) | 16 µg/mL (≈ 9.66 µM) | 8 µg/mL (≈ 4.83 µM) | 2 µg/mL (≈ 1.21 µM) | 2 µg/mL (≈ 1.21 µM) | 2 µg/mL (≈ 1.21 µM) | 4 µg/mL (≈ 2.42 µM) | 2 µg/mL (≈ 1.21 µM) | 2 µg/mL (≈ 1.21 µM) | 2 µg/mL (≈ 1.21 µM) | 1 µg/mL (≈ 0.604 µM) | 8 µg/mL (≈ 4.83 µM) | 4 µg/mL (≈ 2.42 µM) | >1000 µg/mL | 1 µg/mL | 2 Mouse | 1 Mouse | Number of mice that died on each day after infection: day 6 [15]: 0 Mouse; Number of mice that died on each day after infection: day 7 [15]: 2 Mouse; Number of mice that died on each day after infection: day 8 [15]: 0 Mouse; Average survival times (Days) [15]: 9.7** Days; remaining at 12 h, 0.91 mg/mL [16]: 97.6%
2 | CC(=O)N[C@H](CCCNC(=N)N)C(=O)N[C@H](CCCCN)C(=O)N[C@H](CC(C)C)C(=O)N[C@H](CC(C)C)C(=O)N[C@H](Cc1ccc(C(F)(F)F)cc1)C(=O)N[C@H](CCCCN)C(=O)N[C@H](CC(C)C)C(=O)N[C@H](CCCCN)C(=O)N[C@H](Cc1ccc(C(F)(F)F)cc1)C(=O)N[C@H](CCCCN)C(=O)N[C@H](CCCNC(=N)N)C(N)=O [LV-9] (Ac-[dR][dK][dL][dL][dPhe(4-CF3)][dK][dL][dK][dPhe(4-CF3)][dK][dR]-NH2) | 8 µg/mL (≈ 4.84 µM) | 8 µg/mL (≈ 4.84 µM) | 8 µg/mL (≈ 4.84 µM) | 16 µg/mL (≈ 9.67 µM) | 16 µg/mL (≈ 9.67 µM) | 16 µg/mL (≈ 9.67 µM) | 2 µg/mL (≈ 1.21 µM) | 4 µg/mL (≈ 2.42 µM) | 2 µg/mL (≈ 1.21 µM) | 2 µg/mL (≈ 1.21 µM) | 2 µg/mL (≈ 1.21 µM) | 2 µg/mL (≈ 1.21 µM) | 4 µg/mL (≈ 2.42 µM) | 2 µg/mL (≈ 1.21 µM) | 16 µg/mL (≈ 9.67 µM) | 2 µg/mL (≈ 1.21 µM) | >1000 µg/mL | 1 µg/mL | 1 Mouse | 1 Mouse | Number of mice that died on each day after infection: day 6 [15]: 1 Mouse; Number of mice that died on each day after infection: day 7 [15]: 2 Mouse; Number of mice that died on each day after infection: day 8 [15]: 0 Mouse; Average survival times (Days) [15]: 9.9** Days; remaining at 12 h, 0.91 mg/mL [16]: 97.3%
